According to patent US20050238727A1, “Coadministration of radiation, efaproxiral sodium, and supplemental oxygen for the treatment of cancer” (priority 2004, published 2005):

How the values were obtained:
Format in all cases: in vivo, human
brain metastases [1] = test: Survival of patients with brain metastases given efaproxiral sodium + WBRT + supplemental oxygen (controlled study RT-009)
Method: Patients with brain metastases were administered efaproxiral sodium in a total dose of 0-100 mg/kg per day based on the dosing guidelines detailed above. In general, efaproxiral sodium is administered by intravenous infusion through a central venous access device over 30 minutes at a dose of 75 or 100 mg/kg daily with concurrent supplemental oxygen. Oxygen must be administered at 4 L/min via nasal cannula or facemask beginning 5 minutes prior to initiation of infusion, during infusion and WBRT, and for at least 15 minutes after completion of daily WBRT. Efaproxiral sodium is administered every day of a fractionated course of WBRT. Except when contraindicated, WBRT must be administered within 30 minutes of the end of the efaproxiral sodium infusion. The patients were given the drug in one dose. Efaproxiral sodium was administered via central venous access with flow rate controlled by volumetric pump over a 30-45 minute interval with end-infusion no longer than 30 minutes prior to each radiation dose of a 10-day course of WBRT. Efaproxiral sodium was formulated as a sterile solution for injection and was supplied in single-use glass bottles containing 10 g efaproxiral sodium in 500 mL of 0.225% NaCl at a concentration of 20 mg/mL. Efaproxiral sodium was administered during the 10-day course of WBRT, for a maximum of 10 doses. A control group received radiation and supplemental oxygen only. Supplemental oxygen is administered at about 4 L/min via nasal cannula beginning about 5 minutes prior to initiation of infusion, during infusion and WBRT, and for at least about 15 minutes after completion of daily WBRT. If the desired SpO2 of greater than or equal to 90% while breathing room air is not achieved, supplemental oxygen is to be continued and increased to a flow of 6-8 L/min, if necessary, until the SpO2 while breathing room air is stabilized at greater than or equal to 90%. Plasma and red blood cell (RBC) drug concentration were assayed on 2 days during the course of efaproxiral sodium administration: WBRT day 1 (end-infusion) and on 1 single day between WBRT days 6 and 10 (pre-infusion and end-infusion assays). Regression analysis was used to explore the relationship between trough and peak concentrations and continuous clinical covariates (eg, age, serum albumin, hematocrit, serum creatinine, etc). […] A dose of efaproxiral sodium was considered predicatably therapeutic if it achieved a sufficient, RBC concentration (>483 μg/ml), and corresponded to a predicted p50 shift of 10 mmHg. One measurement of efficacy is the survival in the total patient population. For eligible patients, the observed mean survival time for the control group was 4.37 months as compared to 5.39 months for the efaproxiral sodium treated group.

[2] = Treatment-emergent adverse events in the controlled study
Method: Patients with brain metastases were administered efaproxiral sodium in a total dose of 0-100 mg/kg per day based on the dosing guidelines detailed above. In general, efaproxiral sodium is administered by intravenous infusion through a central venous access device over 30 minutes at a dose of 75 or 100 mg/kg daily with concurrent supplemental oxygen. Oxygen must be administered at 4 L/min via nasal cannula or facemask beginning 5 minutes prior to initiation of infusion, during infusion and WBRT, and for at least 15 minutes after completion of daily WBRT. Efaproxiral sodium is administered every day of a fractionated course of WBRT. Except when contraindicated, WBRT must be administered within 30 minutes of the end of the efaproxiral sodium infusion.
The patients were given the drug in one dose. Efaproxiral sodium was administered via central venous access with flow rate controlled by volumetric pump over a 30-45 minute interval with end-infusion no longer than 30 minutes prior to each radiation dose of a 10-day course of WBRT. Efaproxiral sodium was formulated as a sterile solution for injection and was supplied in single-use glass bottles containing 10 g efaproxiral sodium in 500 mL of 0.225% NaCl at a concentration of 20 mg/mL. Efaproxiral sodium was administered during the 10-day course of WBRT, for a maximum of 10 doses. A control group received radiation and supplemental oxygen only.
The majority of treatment-emergent adverse events were Grade 1 or 2 in severity, resolved spontaneously or within the duration of the study, and responded well to concomitant treatment with antiemetics for nausea/vomiting, nonsteroidal anti-inflammatory drugs for headache, supplemental oxygen for hypoxemia. […] Muscle weakness and dyspnea (reported in 3% of patients ) were the most commonly reported Grade 3 adverse events in Control patients and both events were reported as a Grade 4 event in 1 patient each. The most commonly reported Grade 4 adverse event in both treatment and control groups was disease progression (reported in 6% of both groups).

[3] = Plasma and red blood cell (RBC) drug concentration during efaproxiral sodium administration
Method: Plasma and red blood cell (RBC) drug concentration were assayed on 2 days during the course of efaproxiral sodium administration: WBRT day 1 (end-infusion) and on 1 single day between WBRT days 6 and 10 (pre-infusion and end-infusion assays). Regression analysis was used to explore the relationship between trough and peak concentrations and continuous clinical covariates (eg, age, serum albumin, hematocrit, serum creatinine, etc). […] A dose of efaproxiral sodium was considered predicatably therapeutic if it achieved a sufficient, RBC concentration (>483 μg/ml), and corresponded to a predicted p50 shift of 10 mmHg.

brain metastases [4] = test: Radiographic response of brain metastases (contrast enhanced MRI or CT, blinded central review)
Excerpt: Radiographic progression is defined by radiographic criteria only, based on a blinded central review. Determination of radiographic tumor progression in the brain was based on contrast enhanced MRI or CT scans taken at screening and compared to follow-up scans taken 1 month after the end of WBRT, 3 months after the end of WBRT, and every 3 months thereafter until death. Maximum bi-dimensional measurements (x=transverse, y=antero-posterior) were used to compute the bi-dimensional product and for determination of response and radiographic progression. Time to radiographic tumor progression in the brain was reported by means of Kaplan-Meier estimates. Gray's test (Gray R. A class of K-sample tests for comparing the cumulative incidence of a competing risk. Annals of Statistics […];16:1141-1154) was used to compare cumulative incidence between treatment and control groups. Potential competing risks for radiographic progression in the brain included death without progression and loss to follow-up. The date of tumor progression is defined as the date of radiographic documentation that any treated lesion in the brain is enlarged by more than 25% in the bi-dimensional product. The reference to “any treated lesion” mans that the lesion was present prior to RT.

[5] = Quality of life: Karnofsky Performance Status (KPS); details: for patients with stable or improving KPS scores: all randomized patients, N = 271
Method: (§1) Quality of life was determined by means of the Spitzer Questionnaire (SQ) and Kamofsky Performance Status (KPS) assessment. The tests were performed at baseline, at WBRT day 10, and at all routine follow-up visits. A sustained drop in the KPS score to less than 60 was defined as a significant drop. The 5 questions comprising the Spitzer Questionnaire were weighted evenly. For each evaluation with at least 3 out of 5 questions answered, an average score was computed for each patient. Questionnaires with fewer than 3 questions answered were treated as missing data. The protocol specified a sustained drop in the Spitzer Questionnaire score of 2 points constituted a significant drop.

[6] = Quality of life: Spitzer Questionnaire (SQ); details: all randomized patients, N = 271
Method: as §1

[7] = Resaturation time / supplemental oxygen requirement after efaproxiral sodium plus WBRT; details: majority of doses; patients with brain metastases from breast cancer
Method: Depending upon an individual patient's resaturation time (time required to recover to a stable≧90% SpO2 on room air) following efaproxiral sodium plus WBRT, supplemental oxygen use may be required for as little as 30 minutes to more than 4 hours. […] During this period of decreased oxygen saturation, patients require continuous SpO2 monitoring. If the desired SpO2 of≧90% while breathing room air is not achieved, supplemental oxygen is to be continued and increased to a flow of 6-8 L/min, if necessary, until the SpO2 while breathing room air is stabilized at≧90%.

Cc1cc(C)cc(NC(=O)Cc2ccc(OC(C)(C)C(=O)O)cc2)c1 [efaproxiral sodium, 2-[4-(((3,5-dimethylanilino)carbonyl)methyl)phenoxy]-2-methylpropionic acid]
MST (median survival time) (brain metastases [1]; All patients, <7 efaproxiral sodium doses): 2.96 (53)
MST (median survival time) (brain metastases [1]; All patients, ≧7 efaproxiral sodium doses, <7 successful (RBC >483 μg/ml)): 4.93 (118)
MST (median survival time) (brain metastases [1]; All patients, ≧7 efaproxiral sodium doses, ≧7 successful (RBC >483 μg/ml), p 0.001 vs Control): 6.90 (100) 0.001
MST (median survival time) (brain metastases [1]; Breast patients, <7 efaproxiral sodium doses): 3.52 (13)
MST (median survival time) (brain metastases [1]; Breast patients, ≧7 efaproxiral sodium doses, <7 successful): 7.33 (22)
MST (median survival time) (brain metastases [1]; Breast patients, ≧7 efaproxiral sodium doses, ≧7 successful, p 0.0002 vs Control): 25.72 (25) 0.0002
MST (median survival time) (brain metastases [1]; NSCLC patients, <7 efaproxiral sodium doses): 2.71 (30)
MST (median survival time) (brain metastases [1]; NSCLC patients, ≧7 efaproxiral sodium doses, <7 successful): 4.73 (65)
MST (median survival time) (brain metastases [1]; NSCLC patients, ≧7 efaproxiral sodium doses, ≧7 successful, p 0.0011 vs Control): 6.83 (53) 0.0011
observed mean survival time (brain metastases [1]; eligible patients, control group 4.37 months): 5.39 months
HR, survival distribution function, treatment versus control (brain metastases [1]; patients with breast as site of primary, p=0.0061): 0.552
severity of the majority of treatment-emergent adverse events ([2]; controlled study): Grade 1 or 2
Grade 4 hypoxemia ([2]; efaproxiral sodium-treated patients): no Grade 4 hypoxemia was reported
Grade 3 hypoxemia, patients reporting ([2]; efaproxiral sodium-treated patients, most commonly reported Grade 3 adverse event): 11%
Grade 4 disease progression, patients reporting ([2]; most commonly reported Grade 4 adverse event, same in control group): 6%
drug accumulation ([3]; WBRT week 2 preinfusion concentrations in RBCs): No clinically relevant drug accumulation occurred
predicted p50 shift ([3]; at RBC concentration >483 μg/ml): 10 mmHg
change of concentration in RBCs with dose ([3]; patients dosed at 75 or 100 mg/kg): proportional increase
estimated increase in radiographic response rate compared to Control (brain metastases [4]; all randomized patients, 95% CI −0.4%-16.3%, p=0.0609): 7.9%
treatment effect for predicting response (logistic multiple regression) (brain metastases [4]; breast primary patients, p=0.0209): statistically significant
patients with stable or improving KPS scores ([5]; 1 month): 119 (44) n (%)
patients with stable or improving KPS scores ([5]; 3 months): 64 (24) n (%)
patients with stable or improving KPS scores ([5]; 6 months): 49 (18) n (%)
patients with stable or improving KPS scores ([5]; 12 months): 19 (7) n (%)
distribution of KPS score categories between treatment groups ([5]; breast primary patients, 6 months and 1 year (p=0.0046 and p=0.0070)): statistically significant difference
patients with stable or improving SQ scores ([6]; 1 month): 115 (42) n (%)
patients with stable or improving SQ scores ([6]; 3 months): 62 (23) n (%)
patients with stable or improving SQ scores ([6]; 6 months): 43 (16) n (%)
patients with stable or improving SQ scores ([6]; 12 months): 24 (9) n (%)
supplemental oxygen required after completion of WBRT [7]: one
